Data set [1] in a line: Drug uptake in Wistar rat frontal cortex assessed as non-displaceable binding potential at 10 MBq measured at 5 to 60 mins. The format is ADME, tissue-based. As to conditions: in vivo, time 5-60 min.
Data set [2] in a line: Ratio of drug uptake in Wistar rat cortex to cerebellum at 10 MBq measured at 30 mins. In kind it is ADME, tissue-based. To be noted: in vivo, 0.5 h.
The target in data set [3] is T1, 5-hydroxytryptamine receptor 2A (Homo sapiens, UniProt P28223). Nature of the data set: Antagonist activity at human 5-HT2A receptor incubated for 3 hrs by radioligand binding assay. The format is functional.
T1 sequence (P28223 whole entry): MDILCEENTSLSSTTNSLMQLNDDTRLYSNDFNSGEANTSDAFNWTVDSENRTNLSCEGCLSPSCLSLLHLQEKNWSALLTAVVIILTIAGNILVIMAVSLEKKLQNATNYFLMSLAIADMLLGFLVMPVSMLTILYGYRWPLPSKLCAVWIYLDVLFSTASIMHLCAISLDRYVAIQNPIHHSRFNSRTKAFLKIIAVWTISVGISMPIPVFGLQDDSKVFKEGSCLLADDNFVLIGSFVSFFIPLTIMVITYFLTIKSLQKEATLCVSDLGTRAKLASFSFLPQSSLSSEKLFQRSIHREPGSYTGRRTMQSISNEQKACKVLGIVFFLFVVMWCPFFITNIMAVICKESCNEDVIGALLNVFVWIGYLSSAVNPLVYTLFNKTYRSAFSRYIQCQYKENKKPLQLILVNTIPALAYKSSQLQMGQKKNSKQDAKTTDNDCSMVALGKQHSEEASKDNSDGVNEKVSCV
Data set [4] addresses T1, 5-hydroxytryptamine receptor 2A. Nature of the data set: Inverse agonist activity at human 5-HT2A receptor incubated for 3 hrs by radioligand binding assay. The format is functional.
Data set [5] has as its target 5-hydroxytryptamine receptor 7 (Rattus norvegicus, UniProt P32305). Nature of the data set: Binding affinity to rat brain 5-HT7 receptor assessed as inhibition constant incubated for 60 mins. The format is tissue-based.
Data set [6] deals with T2, D(2) dopamine receptor (Rattus norvegicus, UniProt P61169). Nature of the data set: Binding affinity to rat striatum homogenate membrane D2 receptor incubated for 10 mins. In kind it is cell membranes.
T2 sequence (P61169 whole entry): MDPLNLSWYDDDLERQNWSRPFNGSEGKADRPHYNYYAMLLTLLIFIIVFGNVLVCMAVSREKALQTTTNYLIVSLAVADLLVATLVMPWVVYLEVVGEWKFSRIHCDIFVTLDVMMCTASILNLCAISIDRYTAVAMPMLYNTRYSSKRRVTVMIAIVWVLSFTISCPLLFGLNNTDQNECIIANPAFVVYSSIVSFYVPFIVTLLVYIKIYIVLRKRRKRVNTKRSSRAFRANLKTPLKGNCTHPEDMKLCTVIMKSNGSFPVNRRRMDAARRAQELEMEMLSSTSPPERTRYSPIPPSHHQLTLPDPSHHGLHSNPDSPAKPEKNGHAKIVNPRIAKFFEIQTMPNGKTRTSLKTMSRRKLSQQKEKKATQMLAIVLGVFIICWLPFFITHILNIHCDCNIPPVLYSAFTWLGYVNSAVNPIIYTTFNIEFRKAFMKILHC
The target in the next data set is Histamine H1 receptor (Cavia porcellus, UniProt P31389). Nature of the data set: Binding affinity to guinea pig cerebellum homogenate membrane H1 receptor incubated for 30 mins. In kind it is cell membranes.
Histamine H1 receptor, sequence (P31389 whole entry): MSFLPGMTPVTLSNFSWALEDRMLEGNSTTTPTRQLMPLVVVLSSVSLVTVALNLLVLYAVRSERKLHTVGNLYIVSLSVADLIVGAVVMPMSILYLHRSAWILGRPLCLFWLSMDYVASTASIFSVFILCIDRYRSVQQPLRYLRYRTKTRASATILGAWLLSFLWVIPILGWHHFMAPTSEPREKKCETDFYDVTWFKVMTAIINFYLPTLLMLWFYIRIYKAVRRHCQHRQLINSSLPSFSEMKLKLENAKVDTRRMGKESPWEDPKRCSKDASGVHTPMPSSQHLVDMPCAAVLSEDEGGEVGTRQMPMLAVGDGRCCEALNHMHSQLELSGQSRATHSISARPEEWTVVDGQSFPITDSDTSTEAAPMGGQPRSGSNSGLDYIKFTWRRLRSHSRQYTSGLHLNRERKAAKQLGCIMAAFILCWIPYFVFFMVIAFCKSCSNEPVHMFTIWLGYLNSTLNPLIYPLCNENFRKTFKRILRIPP
Data set [7] deals with T3, Alpha-1A adrenergic receptor (Rattus norvegicus, UniProt P43140).
T3 sequence (P43140 whole entry): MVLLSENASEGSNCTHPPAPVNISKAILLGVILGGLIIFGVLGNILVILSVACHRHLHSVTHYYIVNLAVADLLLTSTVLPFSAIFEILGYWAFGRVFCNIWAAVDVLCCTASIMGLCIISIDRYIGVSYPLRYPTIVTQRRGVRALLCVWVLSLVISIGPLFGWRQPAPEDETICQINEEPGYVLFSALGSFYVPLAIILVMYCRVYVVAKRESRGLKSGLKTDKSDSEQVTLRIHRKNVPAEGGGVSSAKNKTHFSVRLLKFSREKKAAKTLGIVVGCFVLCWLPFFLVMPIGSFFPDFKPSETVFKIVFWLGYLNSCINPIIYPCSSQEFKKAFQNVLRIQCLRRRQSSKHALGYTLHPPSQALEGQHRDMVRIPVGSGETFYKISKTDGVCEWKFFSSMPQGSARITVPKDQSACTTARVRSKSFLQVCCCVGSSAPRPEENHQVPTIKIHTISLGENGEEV
As to the kind of experiment: Binding affinity to rat forebrain homogenate membrane alpha 1 adrenergic receptor incubated for 10 mins. In kind it is cell membranes.

Data set [8] addresses 5-hydroxytryptamine receptor 4 (Homo sapiens, UniProt Q13639). Nature of the data set: Binding affinity to 5-HT4 receptor (unknown origin) assessed as inhibition constant.
Data set [9] is described as follows: Drug uptake in human brain. The format is ADME, tissue-based.
A short description of data set [10]: Biodistribution in Wistar rat assessed as uptake ratio of cortex to cerebellum at 50 to 100 microCi measured after 2 hrs. As to conditions: in vivo, dose 50-100 microCi. The format is ADME, organism-based.
Data set [11] concerns the target 5-hydroxytryptamine receptor 6 (Homo sapiens, UniProt P50406). As to the kind of experiment: Binding affinity to 5-HT6 receptor (unknown origin) assessed as inhibition constant.
Data set [12] is described as follows: Ratio of drug uptake in baboon cerebral cortex to cerebellum measured at 60 mins postinjection. In kind it is ADME, organism-based, Papio. As to conditions: in vivo, 1 h.
Data set [13] can be described thus: Ratio of drug uptake in baboon striatum to cerebellum measured at 60 mins postinjection. In kind it is ADME, organism-based, Papio. To be noted: in vivo, 1 h.
The nature of data set [14]: Ratio of drug uptake in human frontal cortex to cerebellum. In kind it is ADME, tissue-based, Brain frontal cortex/cerebellum.
A short description of data set [15]: Ratio of drug uptake in human striatum to cerebellum. In kind it is ADME, tissue-based.
Data set [16] concerns the target T4, 5-hydroxytryptamine receptor 2A (Rattus norvegicus, UniProt P14842). Nature of the data set: Binding affinity to rat 5-HT2A assessed as inhibition constant by liquid scintillation counter analysis.
The target of data set [17] is 5-hydroxytryptamine receptor 2B (Homo sapiens, UniProt P41595). As to the kind of experiment: Binding affinity to 5-HT2B (unknown origin) assessed as inhibition constant by liquid scintillation counter analysis.
5-hydroxytryptamine receptor 2B, sequence (P41595 whole entry): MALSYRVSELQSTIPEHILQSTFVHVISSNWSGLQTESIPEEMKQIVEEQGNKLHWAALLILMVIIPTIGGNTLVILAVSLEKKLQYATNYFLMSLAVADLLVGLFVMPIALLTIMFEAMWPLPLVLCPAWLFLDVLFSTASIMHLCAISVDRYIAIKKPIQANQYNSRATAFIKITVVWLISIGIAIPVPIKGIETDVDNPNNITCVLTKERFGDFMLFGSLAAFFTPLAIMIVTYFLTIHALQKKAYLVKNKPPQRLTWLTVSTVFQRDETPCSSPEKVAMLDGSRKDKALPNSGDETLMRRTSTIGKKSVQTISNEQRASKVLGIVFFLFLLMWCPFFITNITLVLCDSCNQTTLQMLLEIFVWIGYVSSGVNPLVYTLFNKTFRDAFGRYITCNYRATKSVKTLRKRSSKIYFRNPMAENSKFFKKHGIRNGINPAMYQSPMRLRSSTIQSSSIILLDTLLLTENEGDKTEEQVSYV
The target in data set [18] is T5, 5-hydroxytryptamine receptor 2C (Homo sapiens, UniProt P28335).
T5 sequence (P28335 whole entry): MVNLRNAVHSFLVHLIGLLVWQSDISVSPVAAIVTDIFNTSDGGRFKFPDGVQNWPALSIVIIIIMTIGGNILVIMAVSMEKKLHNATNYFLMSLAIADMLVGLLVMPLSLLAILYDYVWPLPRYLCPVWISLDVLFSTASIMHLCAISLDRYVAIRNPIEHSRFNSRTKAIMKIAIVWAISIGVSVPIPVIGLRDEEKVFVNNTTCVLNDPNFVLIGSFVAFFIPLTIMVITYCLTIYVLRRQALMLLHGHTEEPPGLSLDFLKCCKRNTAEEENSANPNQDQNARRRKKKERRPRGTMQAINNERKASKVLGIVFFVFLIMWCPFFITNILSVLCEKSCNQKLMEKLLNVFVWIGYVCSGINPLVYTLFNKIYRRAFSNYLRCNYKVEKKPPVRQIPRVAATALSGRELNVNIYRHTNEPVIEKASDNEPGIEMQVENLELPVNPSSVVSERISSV
Nature of the data set: Binding affinity to 5-HT2C (unknown origin) assessed as inhibition constant by liquid scintillation counter analysis.

A short description of data set [19]: Drug uptake in rat brain frontal cortex relative to control. In kind it is ADME, tissue-based. To be noted: in vivo.
The nature of data set [20]: Drug uptake in Cynomolgus monkey striatum at 4 mCi, iv measured upto 90 mins by PET imaging. In kind it is ADME, organism-based, Macaca fascicularis. As to conditions: in vivo, 1.5 h.
Data set [21] in a line: Drug uptake in cat striatum at 2.5 mCi, iv measured upto 90 mins by PET imaging. In kind it is ADME, organism-based, Felis catus. As to conditions: in vivo, 1.5 h.
Data set [22] concerns the target Serotonin 2 (5-HT2) receptor (Homo sapiens, UniProt P41595+P28223+P28335). As to the kind of experiment: Binding affinity to 5-HT2 receptor (unknown origin) assessed as dissociation constant. The format is protein assay.
Data set [23] deals with T4, 5-hydroxytryptamine receptor 2A. Nature of the data set: Displacement of [3H]-spiperone from rat frontal cortex homogenate 5-HT2A receptor. In kind it is tissue-based. Background: Loss of bound radioactivity is the signal in a displacement assay; it reports binding, not function.
Data set [24] deals with T2, D(2) dopamine receptor. As to the kind of experiment: Displacement of [3H]-haloperidol from rat striatal homogenate D2 receptor. In kind it is tissue-based, Striatum.
The target in data set [25] is T3, Alpha-1A adrenergic receptor. Nature of the data set: Displacement of [3H]-WB4101 from rat forebrain homogenate alpha 1 adrenergic receptor. The format is tissue-based.

The structures appear in SMILES notation. A value given as a limit tells only on which side of the number the result lay.

By Ki is commonly meant the equilibrium dissociation constant of an inhibitor or competing ligand from its target. Usually Kd stands for the concentration at which binding is half-saturated.

T4 sequence (P14842 whole entry): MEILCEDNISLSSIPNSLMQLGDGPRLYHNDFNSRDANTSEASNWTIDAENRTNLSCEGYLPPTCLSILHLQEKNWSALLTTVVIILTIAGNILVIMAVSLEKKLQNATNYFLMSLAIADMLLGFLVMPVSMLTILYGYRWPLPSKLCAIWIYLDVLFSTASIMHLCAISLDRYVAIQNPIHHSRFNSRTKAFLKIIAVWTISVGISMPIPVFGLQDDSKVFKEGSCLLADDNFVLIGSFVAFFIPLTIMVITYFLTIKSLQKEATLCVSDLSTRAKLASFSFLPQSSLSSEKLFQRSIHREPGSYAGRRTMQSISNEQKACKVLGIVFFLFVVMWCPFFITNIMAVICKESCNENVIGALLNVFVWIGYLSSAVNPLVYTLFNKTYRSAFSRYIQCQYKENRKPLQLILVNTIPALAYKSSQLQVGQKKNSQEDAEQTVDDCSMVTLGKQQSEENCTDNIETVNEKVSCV
5-hydroxytryptamine receptor 6, sequence (P50406 whole entry): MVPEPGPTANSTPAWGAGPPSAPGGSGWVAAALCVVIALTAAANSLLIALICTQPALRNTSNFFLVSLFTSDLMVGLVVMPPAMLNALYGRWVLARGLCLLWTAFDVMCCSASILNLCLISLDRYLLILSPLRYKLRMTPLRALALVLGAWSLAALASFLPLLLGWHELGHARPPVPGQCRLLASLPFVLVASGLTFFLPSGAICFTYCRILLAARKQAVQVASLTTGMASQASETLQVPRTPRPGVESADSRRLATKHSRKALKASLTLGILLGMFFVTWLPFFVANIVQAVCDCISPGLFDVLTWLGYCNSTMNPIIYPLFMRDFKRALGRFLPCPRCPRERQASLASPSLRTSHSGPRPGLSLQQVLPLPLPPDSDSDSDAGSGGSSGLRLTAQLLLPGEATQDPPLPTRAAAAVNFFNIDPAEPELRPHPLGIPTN
5-hydroxytryptamine receptor 4, sequence (Q13639 whole entry): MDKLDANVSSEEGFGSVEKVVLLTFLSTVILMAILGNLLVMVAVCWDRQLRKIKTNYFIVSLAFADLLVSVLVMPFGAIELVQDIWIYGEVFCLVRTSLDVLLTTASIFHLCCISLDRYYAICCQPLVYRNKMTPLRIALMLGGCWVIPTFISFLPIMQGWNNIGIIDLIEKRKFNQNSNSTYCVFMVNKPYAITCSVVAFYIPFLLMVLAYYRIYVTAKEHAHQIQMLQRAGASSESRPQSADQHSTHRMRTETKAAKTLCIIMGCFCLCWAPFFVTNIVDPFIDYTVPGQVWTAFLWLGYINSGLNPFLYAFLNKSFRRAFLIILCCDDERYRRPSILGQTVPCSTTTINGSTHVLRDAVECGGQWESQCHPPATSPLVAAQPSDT
5-hydroxytryptamine receptor 7, sequence (P32305 whole entry): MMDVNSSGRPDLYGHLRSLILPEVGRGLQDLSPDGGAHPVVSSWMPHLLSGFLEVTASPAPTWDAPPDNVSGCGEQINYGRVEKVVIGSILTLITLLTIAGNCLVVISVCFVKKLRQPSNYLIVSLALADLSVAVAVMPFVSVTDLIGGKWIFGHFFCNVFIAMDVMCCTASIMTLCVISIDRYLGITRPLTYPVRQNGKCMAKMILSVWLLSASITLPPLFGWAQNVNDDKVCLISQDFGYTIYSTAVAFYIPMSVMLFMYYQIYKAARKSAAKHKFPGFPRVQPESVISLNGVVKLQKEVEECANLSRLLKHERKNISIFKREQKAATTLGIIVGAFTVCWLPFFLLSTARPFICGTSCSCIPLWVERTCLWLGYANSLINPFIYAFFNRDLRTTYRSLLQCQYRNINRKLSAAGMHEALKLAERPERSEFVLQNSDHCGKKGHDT

On to `COc1c(OCC[18F])cccc1[C@H](O)C1CCN(CCc2ccc(F)cc2)CC1`, for which, in [1], the Drug uptake amounted to 1.45. Further, the Ratio in [2] came to 2.7.

In the case of `COc1ccc(C(=O)N(Cc2ccc(C)cc2)C2CCN(C)CC2)cc1`, the inhibitory constant (Ki) in data set [3] worked out at 2.5 nM; in data set [4] it was 2.1 nM.

With `CC1CCN(CC[C@H]2CCCN2S(=O)(=O)c2cccc(OCC[18F])c2)CC1`, the Ki in data set [5] came out at 0.75 nM.

As to `O=C(c1ccc(F)cc1)C1CCN(CCn2c(=O)[nH]c3ccccc3c2=O)CC1` [KETANSERIN], the Ki on D(2) dopamine receptor [6] was found to be 220 nM; on Histamine H1 receptor, 10 nM; in [7], 10 nM.

In the case of `[11CH3]N1CCC(COC(=O)c2cc(Cl)c(N)c3c2OCCO3)CC1`, the Ki in data set [8] came to 0.3 nM. The compound also displayed an SUVmax in data set [9] of 28 kBq/cm3.

For `O=C(c1ccc([18F])cc1)C1CCN(CCn2c(=S)[nH]c3ccccc3c2=O)CC1`, the Ratio in [10] turned out to be 11.

For `CN(C)CCOc1cccc2c1ccn2S(=O)(=O)c1ccc([18F])cc1`, the Ki in [11] was found to be 4 nM.

As for `Cc1nc2n(c(=O)c1CCN1CCC(C(=O)c3ccc([18F])cc3)CC1)CCS2`, the Ratio in data set [12] is 3; in [13] it was 3.5; in data set [14], 2.53; in [15] it was 2.38.

With `COc1cc(CCNCc2ccccc2OC)c(OC)cc1I`, the Ki in [16] came out at 2.2 nM; in data set [17], 2.3 nM; in data set [18], 7 nM.

In data set [19], `COc1cccc([C@H](O)C2CCN(CCc3ccc([18F])cc3)CC2)c1OC` came in with a Drug uptake above 94%.

With `CC(c1cnc2c(N3CCN(C)CC3)cccc2c1)S(=O)(=O)c1ccccc1[18F]` (stereo unspecified), the SUVmax in data set [20] is 2.5; in [21] it was 4.5.

On to `CN(C)CCO/N=C(/C=C/c1ccc(O)cc1)c1ccccc1F` [EPLIVANSERIN], for which the Kd in data set [22] is 1.2 nM.

With `Cc1nc2n(c(=O)c1CCN1CCC(C(=O)c3ccc(F)cc3)CC1)CCS2` [SETOPERONE], the values for the inhibition constant Ki (in data set [23]; at D(2) dopamine receptor [24]; in data set [25]) were 2.3 nM, 24 nM and 12 nM, respectively.

The record behind these values is ChEMBL document CHEMBL5108009, “Positron Emission Tomography (PET) Imaging Tracers for Serotonin Receptors” (J Med Chem, 2022).
